# According to PubChem BioAssay (NCI):
#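 Grown in 96-well plates, cells were treated for 48 hours with each compound at five concentrations. Insufficient inhibition: endpoint recorded as highest concentration tested. Abbreviation: GI50, concentration required for 50% inhibition of growth. TGI: concentration producing complete growth inhibition.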
# Legend:
# Assay in all cases: inhibition of tumour cell growth, NCI panel, 48 h
# BT-549 breast = tested on: BT-549 breast
# SF-268 CNS = tested on: SF-268 CNS
# NCI-H522 lung = tested on: NCI-H522 lung
# HOP-62 NSCLC = tested on: HOP-62 NSCLC
# UACC-62 melanoma = tested on: UACC-62 melanoma
# RXF 393 renal = tested on: RXF 393 renal
# MALME-3M melanoma = tested on: MALME-3M melanoma
# MDA-MB-231 breast = tested on: MDA-MB-231 breast
# SK-OV-3 ovarian = tested on: SK-OV-3 ovarian
# SNB-75 CNS = tested on: SNB-75 CNS
# K-562 leukemia = tested on: K-562 leukemia
# HS 578T breast = tested on: HS 578T breast
# HOP-92 NSCLC = tested on: HOP-92 NSCLC
# 786-0 renal = tested on: 786-0 renal
# SNB-19 CNS = tested on: SNB-19 CNS
# IGROV1 ovarian = tested on: IGROV1 ovarian
# SF-295 CNS = tested on: SF-295 CNS
# SK-MEL-5 melanoma = tested on: SK-MEL-5 melanoma
# SK-MEL-28 melanoma = tested on: SK-MEL-28 melanoma
# HCT-116 colon = tested on: HCT-116 colon
# EKVX NSCLC = tested on: EKVX NSCLC
# MDA-MB-435 = tested on: MDA-MB-435
# NCI-H23 lung = tested on: NCI-H23 lung
# ACHN renal = tested on: ACHN renal
# COLO 205 colon = tested on: COLO 205 colon
# OVCAR-8 ovarian = tested on: OVCAR-8 ovarian
# M14 melanoma = tested on: M14 melanoma
# KM12 colon = tested on: KM12 colon
# A549 NSCLC = tested on: A549 NSCLC
# UACC-257 melanoma = tested on: UACC-257 melanoma
# LOX IMVI melanoma = tested on: LOX IMVI melanoma
# NCI/ADR-RES ovarian = tested on: NCI/ADR-RES ovarian
# A498 renal = tested on: A498 renal
# HCT-15 colon = tested on: HCT-15 colon
# U251 CNS = tested on: U251 CNS
# TK-10 renal = tested on: TK-10 renal
# SN12C renal = tested on: SN12C renal
# MOLT-4 leukemia = tested on: MOLT-4 leukemia
# HT29 colon = tested on: HT29 colon
# SW-620 colon = tested on: SW-620 colon
# HCC-2998 colon = tested on: HCC-2998 colon
# SF-539 CNS = tested on: SF-539 CNS
# NCI-H226 lung = tested on: NCI-H226 lung
# SK-MEL-2 melanoma = tested on: SK-MEL-2 melanoma
# MCF7 breast = tested on: MCF7 breast
# DU-145 prostate = tested on: DU-145 prostate
# NCI-H460 lung = tested on: NCI-H460 lung
# OVCAR-4 ovarian = tested on: OVCAR-4 ovarian
# OVCAR-5 ovarian = tested on: OVCAR-5 ovarian
# UO-31 renal = tested on: UO-31 renal
# CCRF-CEM leukemia = tested on: CCRF-CEM leukemia
# CAKI-1 renal = tested on: CAKI-1 renal
# RPMI-8226 leukemia = tested on: RPMI-8226 leukemia
# T-47D breast = tested on: T-47D breast
# SR leukemia = tested on: SR leukemia
# HL-60(TB) leukemia = tested on: HL-60(TB) leukemia
# PC-3 prostate = tested on: PC-3 prostate
structure (smiles),measurement,setting,value
N#C/C(=C\c1ccc(-c2ccc(Cl)cc2)o1)C(=O)Nc1ncc(Cc2ccc(Br)cc2)s1,GI50,BT-549 breast,1840 nM
same,TGI,BT-549 breast,8690 nM
same,GI50,SF-268 CNS,3730 nM
same,TGI,SF-268 CNS,> 100000 nM
same,GI50,NCI-H522 lung,2640 nM
same,TGI,NCI-H522 lung,> 100000 nM
same,GI50,HOP-62 NSCLC,2470 nM
same,TGI,HOP-62 NSCLC,> 100000 nM
same,GI50,UACC-62 melanoma,2950 nM
same,TGI,UACC-62 melanoma,> 100000 nM
same,GI50,RXF 393 renal,8850 nM
same,TGI,RXF 393 renal,33700 nM
same,GI50,MALME-3M melanoma,1550 nM
same,TGI,MALME-3M melanoma,4260 nM
same,GI50,MDA-MB-231 breast,3380 nM
same,TGI,MDA-MB-231 breast,> 100000 nM
same,GI50,SK-OV-3 ovarian,3920 nM
same,TGI,SK-OV-3 ovarian,25900 nM
same,GI50,SNB-75 CNS,794 nM
same,TGI,SNB-75 CNS,3830 nM
same,GI50,K-562 leukemia,4470 nM
same,TGI,K-562 leukemia,> 100000 nM
same,GI50,HS 578T breast,1230 nM
same,TGI,HS 578T breast,6270 nM
same,GI50,HOP-92 NSCLC,1130 nM
same,TGI,HOP-92 NSCLC,8280 nM
same,GI50,786-0 renal,2450 nM
same,TGI,786-0 renal,6800 nM
same,GI50,SNB-19 CNS,3580 nM
same,TGI,SNB-19 CNS,> 100000 nM
same,GI50,IGROV1 ovarian,2890 nM
same,TGI,IGROV1 ovarian,> 100000 nM
same,GI50,SF-295 CNS,5220 nM
same,TGI,SF-295 CNS,51500 nM
CC[C@]12C=CCN3CC[C@]4(C(=C(C(=O)OC)C1)Nc1cc5c(cc14)[C@@H]1[C@H](O5)[C@@H](O)[C@@]4(CC)CC(C(=O)OC)=C5Nc6cc(OC)ccc6[C@@]56CCN1[C@@H]46)[C@@H]32,GI50,SK-MEL-5 melanoma,227 nM
same,TGI,SK-MEL-5 melanoma,2980 nM
same,GI50,SK-MEL-28 melanoma,457 nM
same,TGI,SK-MEL-28 melanoma,3260 nM
same,GI50,HCT-116 colon,102 nM
same,TGI,HCT-116 colon,352 nM
same,GI50,EKVX NSCLC,253 nM
same,TGI,EKVX NSCLC,12300 nM
same,GI50,BT-549 breast,230 nM
same,TGI,BT-549 breast,2220 nM
same,GI50,MDA-MB-435,173 nM
same,TGI,MDA-MB-435,1460 nM
same,GI50,NCI-H23 lung,171 nM
same,TGI,NCI-H23 lung,805 nM
same,GI50,ACHN renal,174 nM
same,TGI,ACHN renal,690 nM
same,GI50,COLO 205 colon,108 nM
same,TGI,COLO 205 colon,437 nM
same,GI50,OVCAR-8 ovarian,199 nM
same,TGI,OVCAR-8 ovarian,2470 nM
same,GI50,M14 melanoma,163 nM
same,TGI,M14 melanoma,3140 nM
same,GI50,KM12 colon,231 nM
same,TGI,KM12 colon,3230 nM
same,GI50,A549 NSCLC,368 nM
same,TGI,A549 NSCLC,6940 nM
same,GI50,UACC-257 melanoma,183 nM
same,TGI,UACC-257 melanoma,3720 nM
same,GI50,SF-268 CNS,343 nM
same,TGI,SF-268 CNS,11700 nM
same,GI50,NCI-H522 lung,109 nM
same,TGI,NCI-H522 lung,349 nM
same,GI50,HOP-62 NSCLC,189 nM
same,TGI,HOP-62 NSCLC,3120 nM
same,GI50,LOX IMVI melanoma,29.6 nM
same,TGI,LOX IMVI melanoma,105 nM
same,GI50,NCI/ADR-RES ovarian,388 nM
same,TGI,NCI/ADR-RES ovarian,> 50000 nM
same,GI50,UACC-62 melanoma,103 nM
same,TGI,UACC-62 melanoma,1630 nM
same,GI50,A498 renal,98 nM
same,TGI,A498 renal,299 nM
same,GI50,HCT-15 colon,137 nM
same,TGI,HCT-15 colon,511 nM
same,GI50,RXF 393 renal,150 nM
same,TGI,RXF 393 renal,613 nM
same,GI50,MALME-3M melanoma,187 nM
same,TGI,MALME-3M melanoma,3800 nM
same,GI50,MDA-MB-231 breast,163 nM
same,TGI,MDA-MB-231 breast,> 11400 nM
same,GI50,U251 CNS,174 nM
same,TGI,U251 CNS,877 nM
same,GI50,TK-10 renal,128 nM
same,TGI,TK-10 renal,1050 nM
same,GI50,SK-OV-3 ovarian,167 nM
same,TGI,SK-OV-3 ovarian,706 nM
same,GI50,SN12C renal,236 nM
same,TGI,SN12C renal,5960 nM
same,GI50,MOLT-4 leukemia,190 nM
same,TGI,MOLT-4 leukemia,> 50000 nM
same,GI50,HT29 colon,161 nM
same,TGI,HT29 colon,1810 nM
same,GI50,SW-620 colon,177 nM
same,TGI,SW-620 colon,1260 nM
same,GI50,SNB-75 CNS,345 nM
same,TGI,SNB-75 CNS,4440 nM
same,GI50,HCC-2998 colon,130 nM
same,TGI,HCC-2998 colon,557 nM
same,GI50,SF-539 CNS,147 nM
same,TGI,SF-539 CNS,1330 nM
same,GI50,NCI-H226 lung,160 nM
same,TGI,NCI-H226 lung,4300 nM
same,GI50,K-562 leukemia,117 nM
same,TGI,K-562 leukemia,> 50000 nM
same,GI50,SK-MEL-2 melanoma,229 nM
same,TGI,SK-MEL-2 melanoma,2930 nM
same,GI50,MCF7 breast,121 nM
same,TGI,MCF7 breast,> 16500 nM
same,GI50,DU-145 prostate,591 nM
same,TGI,DU-145 prostate,> 20400 nM
same,GI50,NCI-H460 lung,407 nM
same,TGI,NCI-H460 lung,5550 nM
same,GI50,OVCAR-4 ovarian,181 nM
same,TGI,OVCAR-4 ovarian,> 50000 nM
same,GI50,OVCAR-5 ovarian,294 nM
same,TGI,OVCAR-5 ovarian,5340 nM
same,GI50,HS 578T breast,211 nM
same,TGI,HS 578T breast,> 50000 nM
same,GI50,UO-31 renal,131 nM
same,TGI,UO-31 renal,2180 nM
same,GI50,CCRF-CEM leukemia,161 nM
same,TGI,CCRF-CEM leukemia,> 50000 nM
same,GI50,CAKI-1 renal,87.7 nM
same,TGI,CAKI-1 renal,2130 nM
same,GI50,HOP-92 NSCLC,70.9 nM
same,TGI,HOP-92 NSCLC,4050 nM
same,GI50,786-0 renal,92.9 nM
same,TGI,786-0 renal,1070 nM
same,GI50,RPMI-8226 leukemia,133 nM
same,TGI,RPMI-8226 leukemia,576 nM
same,GI50,SNB-19 CNS,300 nM
same,TGI,SNB-19 CNS,14900 nM
same,GI50,IGROV1 ovarian,152 nM
same,TGI,IGROV1 ovarian,2010 nM
same,GI50,T-47D breast,155 nM
same,TGI,T-47D breast,1330 nM
same,GI50,SR leukemia,137 nM
same,TGI,SR leukemia,2820 nM
same,GI50,HL-60(TB) leukemia,58.3 nM
same,GI50,PC-3 prostate,225 nM
same,TGI,PC-3 prostate,5140 nM
same,GI50,SF-295 CNS,250 nM
same,TGI,SF-295 CNS,13800 nM
